Assay results taken from the NIST ThermoML archive (doi:10.1016/j.jct.2006.05.006).

Assay: xn = mol fraction of the nth substance listed
Settings: 101 kPa, Liquid

CN1CCCC1=O [N-methylpyrrolidone] + c1ccccc1
Settings	mass density [kg/m3]
293.15 K, x2 = 0	1032.66
293.15 K, x2 = 0.0434	1027.48
293.15 K, x2 = 0.1023	1020.3
293.15 K, x2 = 0.1625	1012.78
293.15 K, x2 = 0.2237	1004.93
293.15 K, x2 = 0.2834	997.06
293.15 K, x2 = 0.3457	988.6
293.15 K, x2 = 0.4015	980.8
293.15 K, x2 = 0.4865	968.47
293.15 K, x2 = 0.5421	960.08
293.15 K, x2 = 0.6154	948.61
293.15 K, x2 = 0.6854	937.17
293.15 K, x2 = 0.7549	925.31
293.15 K, x2 = 0.8254	912.73
293.15 K, x2 = 0.9002	898.74
293.15 K, x2 = 0.9772	883.6
303.15 K, x2 = 0	1023.42
303.15 K, x2 = 0.0444	1018.04
303.15 K, x2 = 0.1165	1009.11
303.15 K, x2 = 0.1854	1000.32
303.15 K, x2 = 0.2539	991.32
303.15 K, x2 = 0.3296	981.02
303.15 K, x2 = 0.3965	971.6
303.15 K, x2 = 0.4653	961.58
303.15 K, x2 = 0.5362	950.85
303.15 K, x2 = 0.6033	940.29
303.15 K, x2 = 0.6798	927.73
303.15 K, x2 = 0.7451	916.54
303.15 K, x2 = 0.8125	904.52
303.15 K, x2 = 0.8847	891.05
303.15 K, x2 = 0.9245	883.36
303.15 K, x2 = 0.9799	872.31
313.15 K, x2 = 0	1014.27
313.15 K, x2 = 0.0454	1008.7
313.15 K, x2 = 0.1054	1001.17
313.15 K, x2 = 0.1765	992
313.15 K, x2 = 0.2365	984.05
313.15 K, x2 = 0.2965	975.88
313.15 K, x2 = 0.3654	966.2
313.15 K, x2 = 0.4368	955.82
313.15 K, x2 = 0.5012	946.12
313.15 K, x2 = 0.5687	935.58
313.15 K, x2 = 0.6358	924.71
313.15 K, x2 = 0.6954	914.69
313.15 K, x2 = 0.7658	902.39
313.15 K, x2 = 0.8326	890.21
313.15 K, x2 = 0.9036	876.72
313.15 K, x2 = 0.9684	863.87
323.15 K, x2 = 0	1005.62
323.15 K, x2 = 0.0521	999.09
323.15 K, x2 = 0.1245	989.78
323.15 K, x2 = 0.1987	979.96
323.15 K, x2 = 0.2541	972.41
323.15 K, x2 = 0.3214	962.98
323.15 K, x2 = 0.3854	953.74
323.15 K, x2 = 0.4215	948.4
323.15 K, x2 = 0.4854	938.69
323.15 K, x2 = 0.5411	929.98
323.15 K, x2 = 0.6124	918.42
323.15 K, x2 = 0.6854	906.11
323.15 K, x2 = 0.7214	899.84
323.15 K, x2 = 0.7984	885.99
323.15 K, x2 = 0.8598	874.48
323.15 K, x2 = 0.9249	861.81
333.15 K, x2 = 0	996.28
333.15 K, x2 = 0.0451	990.55
333.15 K, x2 = 0.1025	983.11
333.15 K, x2 = 0.1632	975.06
333.15 K, x2 = 0.2302	965.93
333.15 K, x2 = 0.2987	956.32
333.15 K, x2 = 0.3512	948.74
333.15 K, x2 = 0.4215	938.29
333.15 K, x2 = 0.4865	928.31
333.15 K, x2 = 0.5521	917.9
333.15 K, x2 = 0.6213	906.51
333.15 K, x2 = 0.6895	894.85
333.15 K, x2 = 0.7451	885.02
333.15 K, x2 = 0.8145	872.3
333.15 K, x2 = 0.8865	858.55
333.15 K, x2 = 0.9654	842.8
343.15 K, x2 = 0	987.39
343.15 K, x2 = 0.0414	982.03
343.15 K, x2 = 0.1154	972.25
343.15 K, x2 = 0.1874	962.43
343.15 K, x2 = 0.2564	952.76
343.15 K, x2 = 0.3248	942.88
343.15 K, x2 = 0.3965	932.18
343.15 K, x2 = 0.4685	921.08
343.15 K, x2 = 0.5384	909.92
343.15 K, x2 = 0.5968	900.27
343.15 K, x2 = 0.6622	889.13
343.15 K, x2 = 0.7321	876.77
343.15 K, x2 = 0.7954	865.17
343.15 K, x2 = 0.8541	854.04
343.15 K, x2 = 0.9123	842.63
343.15 K, x2 = 0.9799	828.9

CCc1ccccc1 [ethylbenzene] + CN1CCCC1=O
Settings	mass density [kg/m3]
293.15 K, x1 = 0.0854	1016.73
293.15 K, x1 = 0.1254	1009.4
293.15 K, x1 = 0.1847	998.68
293.15 K, x1 = 0.2475	987.56
293.15 K, x1 = 0.3021	978.07
293.15 K, x1 = 0.3654	967.23
293.15 K, x1 = 0.4251	957.16
293.15 K, x1 = 0.4985	944.94
293.15 K, x1 = 0.5471	936.92
293.15 K, x1 = 0.6012	928.06
293.15 K, x1 = 0.6621	918.17
293.15 K, x1 = 0.7214	908.66
293.15 K, x1 = 0.7954	897.01
293.15 K, x1 = 0.8451	889.37
293.15 K, x1 = 0.9214	878.1
293.15 K, x1 = 1	867.28
303.15 K, x1 = 0.0458	1014.88
303.15 K, x1 = 0.1012	1004.66
303.15 K, x1 = 0.1685	992.46
303.15 K, x1 = 0.2314	981.29
303.15 K, x1 = 0.2958	970.09
303.15 K, x1 = 0.3541	960.11
303.15 K, x1 = 0.4217	948.71
303.15 K, x1 = 0.4851	938.16
303.15 K, x1 = 0.5471	927.94
303.15 K, x1 = 0.6012	919.09
303.15 K, x1 = 0.6874	905.16
303.15 K, x1 = 0.7451	895.97
303.15 K, x1 = 0.8124	885.46
303.15 K, x1 = 0.8954	872.96
303.15 K, x1 = 0.9654	863.01
303.15 K, x1 = 1	858.36
313.15 K, x1 = 0.0547	1004.11
313.15 K, x1 = 0.1245	991.32
313.15 K, x1 = 0.1874	980.01
313.15 K, x1 = 0.2451	969.83
313.15 K, x1 = 0.3012	960.1
313.15 K, x1 = 0.3621	949.71
313.15 K, x1 = 0.4321	937.95
313.15 K, x1 = 0.4985	926.93
313.15 K, x1 = 0.5621	916.47
313.15 K, x1 = 0.6251	906.2
313.15 K, x1 = 0.6958	894.8
313.15 K, x1 = 0.7589	884.77
313.15 K, x1 = 0.8245	874.57
313.15 K, x1 = 0.9014	863.06
313.15 K, x1 = 0.9789	852.18
313.15 K, x1 = 1	849.38
323.15 K, x1 = 0.0654	993.44
323.15 K, x1 = 0.1123	984.81
323.15 K, x1 = 0.1785	972.82
323.15 K, x1 = 0.2356	962.68
323.15 K, x1 = 0.2959	952.18
323.15 K, x1 = 0.3575	941.62
323.15 K, x1 = 0.4154	931.85
323.15 K, x1 = 0.4825	920.66
323.15 K, x1 = 0.5415	910.92
323.15 K, x1 = 0.606	900.36
323.15 K, x1 = 0.6784	888.62
323.15 K, x1 = 0.7451	877.94
323.15 K, x1 = 0.8214	866
323.15 K, x1 = 0.8954	854.87
323.15 K, x1 = 0.9548	846.41
323.15 K, x1 = 1	840.35
333.15 K, x1 = 0.0687	983.52
333.15 K, x1 = 0.1254	973.12
333.15 K, x1 = 0.1874	961.93
333.15 K, x1 = 0.2454	951.67
333.15 K, x1 = 0.3021	941.83
333.15 K, x1 = 0.3654	931.02
333.15 K, x1 = 0.4251	920.99
333.15 K, x1 = 0.4784	912.12
333.15 K, x1 = 0.5241	904.57
333.15 K, x1 = 0.5864	894.36
333.15 K, x1 = 0.6478	884.37
333.15 K, x1 = 0.7012	875.76
333.15 K, x1 = 0.7898	861.71
333.15 K, x1 = 0.8457	853.12
333.15 K, x1 = 0.9254	841.39
333.15 K, x1 = 1	831.25
343.15 K, x1 = 0.0784	972.86
343.15 K, x1 = 0.1354	962.43
343.15 K, x1 = 0.1985	951.09
343.15 K, x1 = 0.2415	943.48
343.15 K, x1 = 0.3021	932.94
343.15 K, x1 = 0.3654	922.12
343.15 K, x1 = 0.4251	912.06
343.15 K, x1 = 0.4984	899.86
343.15 K, x1 = 0.5641	889.03
343.15 K, x1 = 0.6214	879.66
343.15 K, x1 = 0.6985	867.19
343.15 K, x1 = 0.7515	858.72
343.15 K, x1 = 0.8125	849.17
343.15 K, x1 = 0.8895	837.51
343.15 K, x1 = 0.9784	824.96
343.15 K, x1 = 1	822.11
353.15 K, x1 = 0.0874	962.38
353.15 K, x1 = 0.1421	952.35
353.15 K, x1 = 0.2032	941.34
353.15 K, x1 = 0.2874	926.52
353.15 K, x1 = 0.3451	916.58
353.15 K, x1 = 0.4021	906.9
353.15 K, x1 = 0.487	892.69
353.15 K, x1 = 0.5474	882.68
353.15 K, x1 = 0.612	872.06
353.15 K, x1 = 0.6874	859.79
353.15 K, x1 = 0.7458	850.42
353.15 K, x1 = 0.8211	838.6
353.15 K, x1 = 0.8954	827.4
353.15 K, x1 = 0.9445	820.37
353.15 K, x1 = 0.98	815.52
353.15 K, x1 = 1	812.9
